Reference: US7105307B2, “Compositions and methods for screening for modulators of enzymatic activity” (Cyclacel, Ltd., priority 1997, dated 2006)
Where no end group is shown, it is not given here. rhodamine = not defined here

Legend:
[1] = tested on: PKA; experiment: FRET report of phosphorylation of labeled peptides by PKA; format: biochemical; details: Zip4SF with Zip4SR, ATP present
Protocol: Donor and acceptor fluorophore-labeled polypeptides comprising coiled-coils (molar equivalents of fluorophore-labeled polypeptide or molar excess of acceptor-labeled polypeptide) are first mixed (if the two coiled-coils are present on separate polypeptides). Samples are analyzed in a fluorimeter using excitation wavelengths relevant to the donor fluorescent moiety and emission wavelengths relevant to both the donor and acceptor moieties. […] Typically, measurements are performed at 0–37° C. as a function of time following the addition of the modifying enzyme (and, optionally, a modulator or candidate modulator of function for that enzyme, as described below) to the system in 50 mM histidine pH 7.0, 120 mM KCl, 5 mM MgSO4, 5 mM NaF, 0.05 mM EGTA and 0.2 mM ATP. The assay may be performed at a higher temperature if that temperature is compatible with the enzyme(s) under study.
(§1) Fluorescence was used to report on the phosphorylation status of these peptides (FIG. 13). […] No loss of FRET was observed on addition of PKA in the absence of ATP (data not shown).
Calculation of the ratio of fluorescence output is important, particularly for in vivo applications, thereby avoiding error due to high local concentrations of reporter in the system and enhancing the ability to observe meaningful change.

[2] = tested on: partner peptide; experiment: FRET between fluorescein- and rhodamine-labeled coiled-coil peptides (association); format: binding; details: emission at 516 nm
Protocol: Peptides were then labeled using a method adapted from one known in the art (Hermanson, 1997, Bioconjugate Techniques, Academic Press). 20 mM fluorescein iodoacetamide (FAM) in DMSO and 0.23 mM peptide in 20 mM TES buffer, pH 7.0 were prepared. These were mixed in a molar ratio of 0.9:1 (peptide:label) and incubated at 4° C. in the dark for a minimum of 2 hours. Initially, this method was also applied to labelling with rhodamine maleimide at a ratio of 0.9:2; however, in other experiments, good labelling has been obtained using rhodamine iodoacetamide at a ratio of 0.9:1. Labelling was assessed by reverse phase HPLC (C18 column; solvent A: H2O/0.1% TFA; solvent B: acetonitrile/0.1% TFA) and MALDI-TOF mass spectrometry.
This was accompanied by an increase in fluorescence detected in the rhodamine emission region (not shown).
as §1

[3] = tested on: PKA; experiment: Timecourse of phosphorylation of peptides by PKA (32P-ATP); format: biochemical; details: 0.2 mM ATP, pH 7.0
Protocol: Peptides (0.01–1.0 μM) are phosphorylated by purified c-PKA in 50 mM Histidine buffer pH 7.0, 5 mM MgSO4, 1 mM EGTA, 0.1–1.0 μM c-PKA, and 0.2 mM [^32P] γ-ATP (specific activity ˜2Bq/pmol) at 30–37° C. for periods of time ranging from 0 to 60 minutes. Where the chemistry of the peptide is appropriate (i.e. having a basic charge) the phosphopeptide is captured on a cation exchange filter paper (e.g. phosphocellulose P81 paper; Whatman), and reactants are removed by extensive washing in 1% phosphoric acid (see Casnellie, 1991, Methods Enzymol., 200: 115–120). Alternatively, phosphorylation of samples is terminated by the addition of SDS-sample buffer (Laemmli, 1970, Nature, 227: 680–685) and the samples analysed by SDS-PAGE electrophoresis, autoradiography and scintillation counting of gel pieces.
A timecourse of phosphorylation of these peptides by PKA was run in 50 mM histidine/HCl (pH 7.0), 5 mM MgSO4, 5 mM NaF, 0.05 mM EGTA, 120 mM KCl with 0.2 mM ATP (30.9 cpm/pmol ^32P-ATP) and 0.5 μM PKA. […] Zip4T is also phosphorylated, but at a slower rate, with full phosphorylation achieved in 30 minutes in this assay. In this assay, the difference in cpm recovered between the Zip4 peptides and PL919Y was due to the difference in recovery of these peptides on P81 paper; however, a plateau was taken to indicate full phosphorylation.
(§2) A second set of timecourses of phosphorylation was performed on Zip4S using PKA and Ca^2+/Calmodulin-dependent Protein Kinase (CaMKII), together with positive and negative controls for CaMKII (used to confirm that the crude preparation of CaMKII had the expected characteristics of that enzyme). PKA phosphorylation was performed in 50 mM histidine/HCl (pH 7.0), 5 mM MgSO4, 5 mM NaF, 0.05 mM EGTA, 120 mM KCl with 0.2 mM ATP (39.72 cpm/pmol ^32P-ATP) and 0.25 μM PKA. CaMKII phosphorylation was performed in 50 mM histidine/HCl (pH 7.0), 5 mM MgSO4, 5 mM NaF, 120 mM KCl, 0.5 mM Ca^2+, 0.037 mg/ml calmodulin with 0.2 mM ATP (39.72 cpm/pmol ^32P-ATP) and 10% crude CaMKII. In the Ca^2+-free experiment, Ca^2+ was replaced by 0.05 mM EGTA. […] Such specificity of a modification site included in a polypeptide comprising a coiled-coil is critical for use of the invention in an intracellular environment.

[4] = Circular dichroism spectra and thermal denaturation of coiled-coil peptides; format: physicochemical
Protocol: The circular dichroism (measured in units of ellipticity) of proteins at 222 nm provides a measure of the amount of α-helix present in the structure, with a large, negative ellipticity indicting a high level of helicity. The coiled-coil has a distinctive α-helical CD spectrum with minima at 222 nm and 208 nm (O'Shea et al., 1989, Science, 243: 538–542). […] In all experiments described herein, peptide concentration was determined by tyrosine absorbance at 280 nm in 6M GuHCl. […] It is clear that this leucine zipper peptide began to unfold at around 35° C. and was completely unfolded by 70° C.
As in Example 1, circular dichroism was used to assess the coiled-coil structure of the Zip4 polypeptides and the disruption of that structure by phosphorylation. […] This was confirmed by the CD spectra of Zip4S and Zip4SP at 1° C. (FIG. 12).
The coiled-coil motif has a characteristic CD spectrum. As described above, measurement of circular dichroism is useful to distinguish monomeric polypeptides from oligomers and to assess the stability of the structure present, although the technique cannot give information regarding the number of monomers making up the coiled-coil structure. […] Importantly, these peptides shown only have 4.5 leucine zipper heptads, and the incomplete nature of the final heptad is likely to compromise the stability of the coiled-coil structure.

[5] = tested on: Ca2+/Calmodulin-dependent Protein Kinase (CaMKII); experiment: Timecourse of phosphorylation by CaMKII (32P-ATP); format: biochemical; details: 10% crude CaMKII, 0.5 mM Ca2+, 0.2 mM ATP
Protocol: as §2

[6] = target: T1, Zip4SF (not fully specified; fluorescent donor label (fluorescein, by analogy with Zip3F) on the single Cys); experiment: FRET, emission spectra
T1 peptide: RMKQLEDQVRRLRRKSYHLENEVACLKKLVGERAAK

[7] = target: the molecule itself; experiment: circular dichroism, self-association

Zip4SF: Zip4S labeled with fluorescein (FRET donor) (RMKQLEDQVRRLRRKSYHLENEVACLKKLVGERAAK; also: labeled with fluorescein (site not given here))
emission at 516 nm on addition of PKA (loss of FRET) [1]: returned to above the level produced by Zip4SF alone
FRET upon addition of Zip4SR [2]: loss of emission at 516 nm

R MKQLEDQ VRRLRRK TYHLENE VACLKKL VGERAAK (RMKQLEDQVRRLRRKTYHLENEVACLKKLVGERAAK) [Zip4T, 29]
phosphorylation by PKA (substrate quality, rate) ([3]; 0.5 μM PKA): slower rate
time to full phosphorylation by PKA ([3]; 0.5 μM PKA): 30 min
relative thermostability (thermal denaturation by CD) ([4]; same conditions as Zip3): more stable than was Zip4S

R MKQLEDQ VRRLRRK SYHLENE VACLKKL VGERAAK (RMKQLEDQVRRLRRKSYHLENEVACLKKLVGERAAK) [Zip4S, 28]
phosphorylation by CaMKII [5]: unable to phosphorylate
phosphorylation by PKA (extent) ([3]; 0.25 μM PKA): complete phosphorylation
phosphorylation by PKA (substrate quality, rate) ([3]; 0.5 μM PKA): good substrate

Zip4SP: enzymatically phosphorylated Zip4S (RMKQLEDQVRRLRRKSYHLENEVACLKKLVGERAAK; also: enzymatically phosphorylated (site not given here))
folding state in thermal melting/denaturation (ellipticity at 222 nm) ([4]; from starting temperature of 1° C.): unfolded polypeptide in solution

B1: Zip4SR (peptide)
peptide: RMKQLEDQVRRLRRKSYHLENEVAC(rhodamine)LKKLVGERAAK
modifications: reading uncertain
notes: the labelling of Zip4S itself is not spelled out
binding result [6]: binds

HMKQLEDKVEELLSKNYCLENEVRRLRRASFSLQ (Initial unsuccessful reporter peptide) [Zip 1]
binding result [7]: binds

B2: Zip 2 (peptide)
peptide: RRIRRASIDKVEELKSKNYCLENEVARLKKLVGER
notes: Initial unsuccessful reporter peptide; also called Zip2s
binding result [7]: binds
